According to paper PMC4823997 (Journal of medicinal chemistry, 2015):
Where two headings read alike, the source gives them in different places.

Experiments:
[1] = test system: HIV-1 IIIB; assay: Luciferase activity assay of HIV-1 infectivity in TZM-bl cells; assay type: cell-based; conditions: read-out: Anti-HIV EC50
[2] = Cytotoxicity assay; assay type: cell-based; conditions: human, TZM-bl cells
[3] = molecular target: hCXCR4 (Homo sapiens, UniProt P61073); assay: Radioligand [125I]SDF-1α binding to hCXCR4-transfected HEK293 membrane; conditions: for fold increase in CXCR4 binding affinity compared to compound 4: relative to compound 4; for fold decrease in CXCR4 binding affinity compared to compound 18: relative to compound 18; for fold decrease in CXCR4 binding compared to compound 25: relative to compound 25
hCXCR4, sequence (P61073 whole entry): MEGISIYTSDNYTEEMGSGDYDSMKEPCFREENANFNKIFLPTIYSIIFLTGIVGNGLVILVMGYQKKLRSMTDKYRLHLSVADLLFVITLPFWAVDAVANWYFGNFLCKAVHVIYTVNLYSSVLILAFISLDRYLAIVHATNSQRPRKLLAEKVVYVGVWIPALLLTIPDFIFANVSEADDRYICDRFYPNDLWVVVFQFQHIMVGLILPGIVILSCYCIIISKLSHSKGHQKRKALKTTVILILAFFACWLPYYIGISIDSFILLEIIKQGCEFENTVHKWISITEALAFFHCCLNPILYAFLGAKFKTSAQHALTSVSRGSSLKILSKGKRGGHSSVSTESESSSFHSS

[4] = Cytotoxicity assay; assay type: cell-based, human; conditions: human, CEM cells (T-lymphoblast leukemia)
[5] = test system: TZM-bl cells; assay: Cytotoxicity assay; assay type: cell-based; conditions: for CC50: read-out: Cytotoxicity CC50 TZM-bl, TZM-bl cells, 72 h
[6] = test system: CEM cells; assay: Cytotoxicity assay; assay type: cell-based, human; conditions: for CC50: read-out: Cytotoxicity CC50 CEM, CEM cells, 72 h
[7] = TZM-bl cells, HIV-1 IIIB, M.O.I. 1

| SMILES | CC50 at 72 h [2] [µM] | selectivity ratio at 72 h [2] | CC50 at 72 h [4] [µM] | selectivity ratio at 72 h [4] | other results |
| --- | --- | --- | --- | --- | --- |
| c1cc(CN2CCCNCCNCCCNCC2)ccc1CN1CCCNCCNCCCNCC1 [AMD3100, reference compound] |  |  |  |  | EC50 ([1]; Human immunodeficiency virus 1, IIIB, TZM-bl): 0.0666 ± 0.0231 µM |
| COc1ccc2nc(NCc3ccc(CNCCCNC4CCCCC4)cc3)nc(NC3CCNCC3)c2c1 [Compound 9, N^2-{4-[(3-Cyclohexylamino-propylamino)-methyl]-benzyl}-6-methoxy-N^4-piperidin-4-yl-quinazoline-2,4-diamine] | 8.4 ± 1 | 177 | 8 ± 1.7 | 169 | fold increase in CXCR4 binding affinity compared to compound 4 [3]: 4−5 fold |
| COc1ccc2c(NC3CCNCC3)nc(NCc3ccc(CNCCCNC4CCCCC4)cc3)nc2c1 [Compound 10, N^2-{4-[(3-Cyclohexylamino-propylamino)-methyl]-benzyl}-7-methoxy-N^4-piperidin-4-yl-quinazoline-2,4-diamine] | 10.8 ± 3.3 | 1260 | 1.6 ± 0.6 | 186 | fold increase in CXCR4 binding affinity compared to compound 4 [3]: 4−5 fold |
| COc1cc2nc(NCc3ccc(CNCCCNC4CCCCC4)cc3)nc(NC3CCNCC3)c2cc1OC [Compound 11, N^2-{4-[(3-Cyclohexylamino-propylamino)-methyl]-benzyl}-6,7-dimethoxy-N^4-piperidin-4-yl-quinazoline-2,4-diamine] | 23.1 ± 7 | 1060 | 17.5 ± 2.4 | 806 |  |
| COc1ccc2nc(NCc3ccc(CNCCCNC4CCCCCC4)cc3)nc(NC3CCNCC3)c2c1 [Compound 12, N^2-{4-[(3-Cycloheptylamino-propylamino)-methyl]-benzyl}-6-methoxy-N^4-piperidin-4-yl-quinazoline-2,4-diamine] | 21.7 ± 7 | 509 | 6.5 ± 1.1 | 153 | fold increase in CXCR4 binding affinity compared to compound 4 [3]: 4−5 fold |
| COc1ccc2c(NC3CCNCC3)nc(NCc3ccc(CNCCCNC4CCCCCC4)cc3)nc2c1 [Compound 13, N^2-{4-[(3-Cycloheptylamino-propylamino)-methyl]-benzyl}-7-methoxy-N^4-piperidin-4-yl-quinazoline-2,4-diamine] | 10.8 ± 0.8 | 238 | 6.1 ± 1.1 | 134 | fold increase in CXCR4 binding affinity compared to compound 4 [3]: 4−5 fold |
| COc1cc2nc(NCc3ccc(CNCCCNC4CCCCCC4)cc3)nc(NC3CCNCC3)c2cc1OC [Compound 14, N^2-{4-[(3-Cycloheptylamino-propylamino)-methyl]-benzyl}-6,7-methoxy-N^4-piperidin-4-yl-quinazoline-2,4-diamine] |  |  |  |  | Selective Index CC50/EC50 TZM-bl [5]: 399; CC50 [5]: 19.3 ± 0.88 µM; EC50 [1, 7]: 0.0484 ± 0.0034 µM; Selective Index CC50/EC50 CEM [6]: 376; CC50 [6]: 18.2 ± 4.5 µM |
| COc1ccc2nc(NCc3ccc(CNCCCN4CCCCC4)cc3)nc(NC3CCNCC3)c2c1 [Compound 15, 6-Methoxy-N^4-piperidin-4-yl-N^2-{4-[(3-piperidin-1-yl-propy-lamino)-methyl]-benzyl}-quinazoline-2,4-diamine] |  |  |  |  | Selective Index CC50/EC50 TZM-bl [5]: 261; CC50 [5]: 24.5 ± 2.5 µM; EC50 [1, 7]: 0.0939 ± 0.0147 µM; Selective Index CC50/EC50 CEM [6]: 196; CC50 [6]: 18.4 ± 5.5 µM |
| COc1ccc2c(NC3CCNCC3)nc(NCc3ccc(CNCCCN4CCCCC4)cc3)nc2c1 [Compound 16, 7-Methoxy-N^4-piperidin-4-yl-N^2-{4-[(3-piperidin-1-yl-propy-lamino)-methyl]-benzyl}-quinazoline-2,4-diamine] |  |  |  |  | Selective Index CC50/EC50 TZM-bl [5]: 1193; CC50 [5]: 32.2 ± 0.2 µM; EC50 [1, 7]: 0.027 ± 0.0042 µM; Selective Index CC50/EC50 CEM [6]: 511; CC50 [6]: 13.8 ± 1.9 µM |
| COc1cc2nc(NCc3ccc(CNCCCN4CCCCC4)cc3)nc(NC3CCNCC3)c2cc1OC [Compound 17, 6,7-Dimethoxy-N^4-piperidin-4-yl-N^2-{4-[(3-piperidin-1-yl-propylamino)-methyl]-benzyl}-quinazoline-2,4-diamine] | 28.1 ± 1.5 | 1070 | 17.6 ± 3 | 672 |  |
| c1nc2c(NCc3ccc(CNCCCNC4CCCCC4)cc3)nc(N3CCNCC3)nc2[nH]1 [Compound 18, N-Cyclohexyl-N′-{4-[(2-piperazin-1-yl-9H-purin-6-ylamino)-methyl]-benzyl}-propane-1,3-diamine] | > 50 | > 25000 | > 50 | > 25000 |  |
| Cn1cnc2c(NCc3ccc(CNCCCNC4CCCCC4)cc3)nc(N3CCNCC3)nc21 [Compound 19, N-Cyclohexyl-N′-{4-[(9-methyl-2-piperazin-1-yl-9H-purin-6-ylamino)-methyl]-benzyl}-propane-1,3-diamine] | 18.6 ± 2 | 5470 | 20.2 ± 1.5 | 5940 | fold decrease in CXCR4 binding affinity compared to compound 18 [3]: 4−5 fold |
| CN1CCN(c2nc(NCc3ccc(CNCCCNC4CCCCC4)cc3)c3ncn(C)c3n2)CC1 [Compound 20, N-Cyclohexyl-N′-(4-{[9-methyl-2-(4-methyl-piperazin-1-yl)-9H-purin-6-ylamino]-methyl}-benzyl)-propane-1,3-diamine] | 11.2 ± 2.1 | 1720 | 13.8 ± 1.8 | 2120 | fold decrease in CXCR4 binding affinity compared to compound 18 [3]: 4−5 fold |
| c1nc2c(NCc3ccc(CNCCCNC4CCCCC4)cc3)nc(N3CCC(C4CCNCC4)CC3)nc2[nH]1 [Compound 21, N-{4-[(2-[4,4′]Bipiperidinyl-1-yl-9H-purin-6-ylamino)-methyl]-benzyl}-N′-cyclohexyl-propane-1,3-diamine] | > 50 | > 593 | > 50 | > 593 | fold decrease in CXCR4 binding affinity compared to compound 18 [3]: 2−3 fold |
| c1nc2c(NCc3ccc(CNCCCNC4CCCCC4)cn3)nc(N3CCNCC3)nc2[nH]1 [Compound 22, N-Cyclohexyl-N′-{6-[(2-piperazin-1-yl-9H-purin-6-ylamino)-methyl]-pyridin-3-ylmethyl}-propane-1,3-diamine] | > 50 | > 11900 | > 50 | > 11900 | fold decrease in CXCR4 binding affinity compared to compound 18 [3]: 2 fold |
| c1nc2c(NCCc3ccc(CNCCCNC4CCCCC4)cc3)nc(N3CCNCC3)nc2[nH]1 [Compound 23, N-Cyclohexyl-N′-{4-[2-(2-piperazin-1-yl-9H-purin-6-ylami-no)-ethyl]-benzyl}-propane-1,3-diamine] |  |  |  |  | Selective Index CC50/EC50 TZM-bl [5]: >16129; CC50 [5]: > 50 µM; EC50 [1, 7]: 0.0031 ± 0.0007 µM; fold decrease in CXCR4 binding affinity compared to compound 18 [3]: around 2 fold; Selective Index CC50/EC50 CEM [6]: 15065; CC50 [6]: 46.7 ± 3.2 µM |
| c1cc(CNCCCNC2CCCCC2)nc(CNc2nc(N3CCNCC3)nc3[nH]cnc23)c1 [Compound 26, N-Cyclohexyl-N′-{6-[(2-piperazin-1-yl-9H-purin-6-ylamino)-methyl]-pyridin-2-ylmethyl}-propane-1,3-diamine] | > 50 | > 20000 | > 50 | > 20000 | fold decrease in CXCR4 binding compared to compound 25 [3]: 4−10 fold |
| c1nc2c(NCc3cncc(CNCCCNC4CCCCC4)c3)nc(N3CCNCC3)nc2[nH]1 [Compound 27, N-Cyclohexyl-N′-{5-[(2-piperazin-1-yl-9H-purin-6-ylamino)-methyl]-pyridin-3-ylmethyl}-propane-1,3-diamine] | > 50 | > 8770 | > 50 | > 8770 | fold decrease in CXCR4 binding compared to compound 25 [3]: 4−10 fold |
| CC1(C)CN2C(CSC(=NC3CCCCC3)NC3CCCCC3)=CSC2=N1 [IT1t, reference compound] |  |  |  |  | EC50 [1, 7]: > 0.07 µM |
